We go through 1 compound from PMC10795032 (ACS Omega, 2024).

Holding throughout (assay type): cell-based, human
Assay [1] relates to pAKT. In words: Western blot, phosphorylation of AKT. Conditions: U87-MG, 5 μM, 24 h.
For assay [2], the system named is cleaved caspase-3. Description: Western blot, cleaved caspase-3. Conditions: U87-MG, 5 μM, 24 h. For orientation: A western blot detects proteins with antibodies after separation by electrophoresis.
Assay [3] relates to p-mTOR. Description: Western blot, phosphorylation of mTOR. Conditions: U87-MG, 5 μM, 24 h.
Assay [4] concerns LC3. In words: Western blot, LC3-I to LC3-II conversion. Conditions: U87-MG, 24 h.
For assay [5], the system named is p62/SQSTM1. In words: Western blot, autophagic flux marker p62/SQSTM1. Conditions: U87-MG, 5 μM, 24 h.
Assay [6] deals with U87-MG cells. In words: Annexin V-FITC/PI flow cytometry apoptosis assay. The settings on record: 5 μM, 24 h.
The test system of assay [7] is U87-MG cells. Conditions: 5 μM with 20 μM CQ, 24 h, CCK-8.

Turning to `COc1cc2ncnc(Nc3ccc(F)c(Cl)c3)c2cc1OCCCN1CCOCC1` [Gefitinib], the “phosphorylation of AKT” value in assay [1] is “potent in inhibiting”. In addition, in assay [2], the “cleaved caspase-3 expression” value is reported as “cleaved caspase-3 expression can be seen”. Further, the “phosphorylation of mTOR” value in assay [3] is “potent in inhibiting”. In assay [4] (5 μM with 20 μM CQ), the “conversion of LC3-II on co-incubation with CQ” value is “significantly increases”. In assay [4] (5 μM), the “conversion of LC3-I to LC3-II” value was “able to induce autophagy”. Also, the “expression of p62” value in assay [5] is recorded as “partially downregulate”. Besides, the “apoptosis rate (Annexin-V-positive cells)” value in assay [6] came to 44.16%. Also, the “increase in cell death along with CQ compared with treated alone” value in assay [7] stood at 2.09%.
